The target of test [1] is T1, Human KRAS G12D 6His-tagged (Homo sapiens, UniProt P01116, G12D).
T1 construct: purchased PerkinElmer
Description: KRAS-G12D/GTP binding assay (HTRF). The method, boiled down: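 HTRF kit format: 6His-tagged KRAS G12D incubated with compound (final 0.02-5000 nM, 0.5% DMSO), anti-6His Eu cryptate antibody and GTP Red reagent for 1 h at 25° C. 665/620 nm ratio versus control gave inhibition rates; IC50 by nonlinear fit.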
(Time-resolved FRET reads energy transfer from a long-lived donor to a nearby acceptor.)

For test [2], the system named is phosphorylated ERK. In words: KRAS G12D-mediated phosphorylated ERK inhibition assay (AlphaLISA), A427. Type of test: cell-based. The following applies: Homo sapiens, A-427; A427 cells; class symbols; read-out: pERK (A427) IC50. On the procedure:
The relative amounts of phosphorylated ERK and total ERK in the samples were separately determined according to the test methods provided in the instructions of the AlphaLISA SureFire Ultra p-ERK 1/2 (Thr202/Tyr204) kit (PerkinElmer) and the AlphaLISA SureFire Ultra TotalERK 1/2 kit (PerkinElmer).
The experimental procedures for the assay of the phosphorylated ERK and total ERK were as follows: 10 μL of each sample was added to a 384-well plate (Greiner), and 5 μL of the prepared Acceptor Beads (PerkinElmer) mixed solution (containing 50× Acceptor Beads 615, Activation Buffer, and equal volumes of Reaction Buffer 1 and Reaction Buffer 2) was added to each well; and the plate was incubated at room temperature for 2 h. Then 5 μL of 1× Donor Beads (PerkinElmer) diluted with Dilution Buffer was added to each well, and the plate was incubated at room temperature overnight. After the incubation was completed, AlphaLISA signal values for the phosphorylated ERK and total ERK were separately measured on an EnVision microplate reader (PerkinElmer) in the AlphaScreen standard mode. The following formula was adopted: phosphorylated ERK correction value=phosphorylated ERK AlphaLISA signal value/total ERK AlphaLISA signal value. The relative ratio of the phosphorylated ERK for each sample was calculated. The percentage inhibition rates of the compounds on the phosphorylated ERK at each concentration were calculated by comparing the relative value of the phosphorylated ERK with that of the DMSO control well. Then non-linear curve fittings for logarithmic concentration-inhibition rate were performed by the GraphPad Prism 8 analysis software, and the IC50 values of the compounds on the inhibition of the phosphorylated ERK were obtained (Table 2).
(In general: In Alpha technology, singlet oxygen from a donor bead excites a nearby acceptor bead.)

What is called IC50 is the concentration at which inhibition is half-maximal.

T1 sequence (P01116 1-188 isoform P01116-2 G12D): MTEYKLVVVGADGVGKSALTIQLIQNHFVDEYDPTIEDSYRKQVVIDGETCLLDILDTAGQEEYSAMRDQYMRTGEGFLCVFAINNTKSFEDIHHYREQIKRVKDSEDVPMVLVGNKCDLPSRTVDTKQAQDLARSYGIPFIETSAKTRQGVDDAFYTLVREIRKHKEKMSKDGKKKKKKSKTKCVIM

For the compound `C#Cc1c(F)ccc2cc(O)cc(-c3ncc4c(N5CC6CCC(C5)N6)nc(OCC5(CN6CCN(CCC7CCN(C(=O)c8ccc(Cl)c(N9CCC(=O)NC9=O)c8)CC7)CC6)CC5)nc4c3F)c12` [Example 3, 1-(5-(4-(2-(4-((1-(((4-(3,8-diazabicyclo[3.2.1]octan-3-yl)-7-(8-ethynyl-7-fluoro-3-hydroxynaphthalen-1-yl)-8-fluoropyrido[4,3-d]pyrimidin-2-yl)oxy)methyl)cyclopropyl)methyl)piperazin-1-yl)ethyl)piperidine-1-carbonyl)-2-chlorophenyl)dihydropyrimidine-2,4(1H,3H)-dione], the IC50 in test [1] (class symbols) was ≤ 50 nM; in test [2], 50 to 100 nM. The matching figures for `C#Cc1c(F)ccc2cc(O)cc(-c3ncc4c(N5CC6CCC(C5)N6)nc(OCC5(CN6CCN(CCCC7CCN(C(=O)c8ccc(Cl)c(N9CCC(=O)NC9=O)c8)CC7)CC6)CC5)nc4c3F)c12` [Example 4, 1-(5-(4-(3-(4-((1-(((4-(3,8-diazabicyclo[3.2.1]octan-3-yl)-7-(8-ethynyl-7-fluoro-3-hydroxynaphthalen-1-yl)-8-fluoropyrido[4,3-d]pyrimidin-2-yl)oxy)methyl)cyclopropyl)methyl)piperazin-1-yl)propyl)piperidine-1-carbonyl)-2-chlorophenyl)dihydropyrimidine-2,4(1H,3H)-dione]: ≤ 50 nM and ≤ 50 nM.

In the case of `C#Cc1c(F)ccc2cc(O)cc(-c3ncc4c(N5CC6CCC(C5)N6)nc(OCC5(CN6CCN(CCCCC7CCN(C(=O)c8ccc(Cl)c(N9CCC(=O)NC9=O)c8)CC7)CC6)CC5)nc4c3F)c12` [Example 5, 1-(5-(4-(4-(4-((1-(((4-(3,8-diazabicyclo[3.2.1]octan-3-yl)-7-(8-ethynyl-7-fluoro-3-hydroxynaphthalen-1-yl)-8-fluoropyrido[4,3-d]pyrimidin-2-yl)oxy)methyl)cyclopropyl)methyl)piperazin-1-yl)butyl)piperidine-1-carbonyl)-2-chlorophenyl)dihydropyrimidine-2,4(1H,3H)-dione], the IC50 in test [1] (class symbols) and in test [2] was ≤ 50 nM each time. Consider `C#Cc1c(F)ccc2cc(O)cc(-c3ncc4c(N5CC6CCC(C5)N6)nc(OCC5(CN6CCN(CC7CCC8(CC7)CCN(C(=O)c7ccc(Cl)c(N9CCC(=O)NC9=O)c7)CC8)CC6)CC5)nc4c3F)c12` [Example 6, 1-(5-(9-((4-((1-(((4-(3,8-diazabicyclo[3.2.1]octan-3-yl)-7-(8-ethynyl-7-fluoro-3-hydroxynaphthalen-1-yl)-8-fluoropyrido[4,3-d]pyrimidin-2-yl)oxy)methyl)cyclopropyl)methyl)piperazin-1-yl)methyl)-3-azaspiro[5.5]undecane-3-carbonyl)-2-chlorophenyl)dihydropyrimidine-2,4(1H,3H)-dione], for which the IC50 in test [1] (class symbols) and in test [2] was ≤ 50 nM in each case.

With `C#Cc1c(F)ccc2cc(O)cc(-c3ncc4c(N5CC6CCC(C5)N6)nc(OCC5(CN6CCN(CCCC7CCC8(CC7)CCN(C(=O)c7ccc(Cl)c(N9CCC(=O)NC9=O)c7)CC8)CC6)CC5)nc4c3F)c12` [Example 7, 1-(5-(9-(3-(4-((1-(((4-(3,8-diazabicyclo[3.2.1]octan-3-yl)-7-(8-ethynyl-7-fluoro-3-hydroxynaphthalen-1-yl)-8-fluoropyrido[4,3-d]pyrimidin-2-yl)oxy)methyl)cyclopropyl)methyl)piperazin-1-yl)propyl)-3-azaspiro[5.5]undecane-3-carbonyl)-2-chlorophenyl)dihydropyrimidine-2,4(1H,3H)-dione], the IC50 in test [1] (class symbols) and in test [2] was ≤ 50 nM throughout. In the case of `C#Cc1c(F)ccc2cc(O)cc(-c3ncc4c(N5CC6CCC(C5)N6)nc(OCC5(CN6CCN(CCCC7CCN(C(=O)c8ccc(OC)c(N9CCC(=O)NC9=O)c8)CC7)CC6)CC5)nc4c3F)c12` [Example 8, 1-(5-(4-(3-(4-((1-(((4-(3,8-diazabicyclo[3.2.1]octan-3-yl)-7-(8-ethynyl-7-fluoro-3-hydroxynaphthalen-1-yl)-8-fluoropyrido[4,3-d]pyrimidin-2-yl)oxy)methyl)cyclopropyl)methyl)piperazin-1-yl)propyl)piperidine-1-carbonyl)-2-methoxyphenyl)dihydropyrimidine-2,4(1H,3H)-dione], the 50% inhibitory concentration (IC50) in test [1] (class symbols) and in test [2] was ≤ 50 nM in each case. For `C#Cc1c(F)ccc2cc(O)cc(-c3ncc4c(N5CC6CCC(C5)N6)nc(OCC5(CN6CCC(CCOCC7CCN(C(=O)c8ccc(Cl)c(N9CCC(=O)NC9=O)c8)CC7)CC6)CC5)nc4c3F)c12` [Example 10], the IC50 in test [1] (class symbols) and in test [2] was ≤ 50 nM throughout. For `C#Cc1c(F)ccc2cc(O)cc(-c3ncc4c(N5CC6CCC(C5)N6)nc(OCC5(CN6CCC(COCC7CCN(C(=O)c8ccc(Cl)c(N9CCC(=O)NC9=O)c8)CC7)CC6)CC5)nc4c3F)c12` [Example 13, 1-(5-(4-(((1-((1-(((4-(3,8-diazabicyclo[3.2.1]octan-3-yl)-7-(8-ethynyl-7-fluoro-3-hydroxynaphthalen-1-yl)-8-fluoropyrido[4,3-d]pyrimidin-2-yl)oxy)methyl)cyclopropyl)methyl)piperidin-4-yl)methoxy)methyl)piperidine-1-carbonyl)-2-chlorophenyl)dihydropyrimidine-2,4(1H,3H)-dione], the IC50 in test [1] (class symbols) and in test [2] was ≤ 50 nM in each case. Regarding `C#Cc1c(F)ccc2cc(O)cc(-c3ncc4c(N5CC6CCC(C5)N6)nc(OCC5(CN6CCN(CC7CCC8(CC7)CCN(C(=O)c7ccc(OC)c(N9CCC(=O)NC9=O)c7)CC8)CC6)CC5)nc4c3F)c12` [Example 14, 1-(5-(9-((4-((1-(((4-(3,8-diazabicyclo[3.2.1]octan-3-yl)-7-(8-ethynyl-7-fluoro-3-hydroxynaphthalen-1-yl)-8-fluoropyrido[4,3-d]pyrimidin-2-yl)oxy)methyl)cyclopropyl)methyl)piperazin-1-yl)methyl)-3-azaspiro[5.5]undecane-3-carbonyl)-2-methoxyphenyl)dihydropyrimidine-2,4(1H,3H)-dione], the IC50 in test [1] (class symbols) and in test [2] was ≤ 50 nM in each case. Consider `CCc1c(F)ccc2cc(O)cc(-c3ncc4c(N5CC6CCC(C5)N6)nc(OCC5(CN6CCN(CC7CCC8(CC7)CCN(C(=O)c7ccc(OC)c(N9CCC(=O)NC9=O)c7)CC8)CC6)CC5)nc4c3F)c12` [Example 15, 1-(5-(9-((4-((1-(((4-(3,8-diazabicyclo[3.2.1]octan-3-yl)-7-(8-ethyl-7-fluoro-3-hydroxynaphthalen-1-yl)-8-fluoropyrido[4,3-d]pyrimidin-2-yl)oxy)methyl)cyclopropyl)methyl)piperazin-1-yl)methyl)-3-azaspiro[5.5]undecane-3-carbonyl)-2-methoxyphenyl)dihydropyrimidine-2,4(1H,3H)-dione], for which the IC50 in test [1] (class symbols) and in test [2] was ≤ 50 nM in each case. In the case of `C#Cc1c(F)ccc2cc(O)cc(-c3ccc4c(N5CC6CCC(C5)N6)nc(OCC5(CN6CCN(CC7CCC8(CC7)CCN(C(=O)c7ccc(C)c(N9CCC(=O)NC9=O)c7)CC8)CC6)CC5)nc4c3F)c12` [Example 42, 1-(5-(9-((4-((1-(((4-(3,8-diazabicyclo[3.2.1]octan-3-yl)-7-(8-ethynyl-7-fluoro-3-hydroxynaphthalen-1-yl)-8-fluoroquinazolin-2-yl)oxy)methyl)cyclopropyl)methyl)piperazin-1-yl)methyl)-3-azaspiro[5.5]undecane-3-carbonyl)-2-methylphenyl)dihydropyrimidine-2,4(1H,3H)-dione], the concentration for half-maximal inhibition (IC50) in test [1] (class symbols) is ≤ 50 nM. On the same count and under the same terms, for `C#Cc1cccc2cc(O)cc(-c3ncc4c(N5CC6CCC(C5)N6)nc(OCC5(CN6CCN(CC7CCC8(CC7)CCN(C(=O)c7ccc(Cl)c(N9CCC(=O)NC9=O)c7)CC8)CC6)CC5)nc4c3F)c12` [Example 57, 1-(5-(9-((4-((1-(((4-(3,8-diazabicyclo[3.2.1]octan-3-yl)-7-(8-ethynyl-3-hydroxynaphthalen-1-yl)-8-fluoropyrido[4,3-d]pyrimidin-2-yl)oxy)methyl)cyclopropyl)methyl)piperazin-1-yl)methyl)-3-azaspiro [5.5]undecane-3-carbonyl)-2-chlorophenyl)dihydropyrimidine-2,4(1H,3H)-dione] the value was ≤ 50 nM.

`C#Cc1c(F)ccc2cc(O)cc(-c3ncc4c(N5CC6CCC(C5)N6)nc(OCC(C)CN5CCN(CC6CCC7(CC6)CCN(C(=O)c6ccc(OC)c(N8CCC(=O)NC8=O)c6)CC7)CC5)nc4c3F)c12` (centres unmarked) [Example 84, 1-(5-(9-((4-(3-((4-(3,8-diazabicyclo[3.2.1]octan-3-yl)-7-(8-ethynyl-7-fluoro-3-hydroxynaphthalen-1-yl)-8-fluoropyrido[4,3-d]pyrimidin-2-yl)oxy)-2-methylpropyl)piperazin-1-yl)methyl)-3-azaspiro[5.5]undecane-3-carbonyl)-2-methoxyphenyl)dihydropyrimidine-2,4(1H,3H)-dione] gave an IC50 in test [1] (numeric values) of 2.47 nM.
